ChEMBL document CHEMBL1201862, “PubChem BioAssay data set” (2004)
Calls of active or inactive are those of the source.

What was measured:
[1] = target: Luciferin 4-monooxygenase (Photinus pyralis, UniProt P08659); experiment: firefly luciferase enzyme inhibitors, dose response, biochemical, luminescence (AID 1891)
[2] = target: Heat shock protein HSP 90-alpha (Homo sapiens, UniProt P07900); assay type: functional, organism-based
HSP90 = HSP90 (Plasmodium falciparum 3D7, UniProt Q8IL32); assay type: functional, organism-based
Sequence of HSP90 (Q8IL32 whole entry): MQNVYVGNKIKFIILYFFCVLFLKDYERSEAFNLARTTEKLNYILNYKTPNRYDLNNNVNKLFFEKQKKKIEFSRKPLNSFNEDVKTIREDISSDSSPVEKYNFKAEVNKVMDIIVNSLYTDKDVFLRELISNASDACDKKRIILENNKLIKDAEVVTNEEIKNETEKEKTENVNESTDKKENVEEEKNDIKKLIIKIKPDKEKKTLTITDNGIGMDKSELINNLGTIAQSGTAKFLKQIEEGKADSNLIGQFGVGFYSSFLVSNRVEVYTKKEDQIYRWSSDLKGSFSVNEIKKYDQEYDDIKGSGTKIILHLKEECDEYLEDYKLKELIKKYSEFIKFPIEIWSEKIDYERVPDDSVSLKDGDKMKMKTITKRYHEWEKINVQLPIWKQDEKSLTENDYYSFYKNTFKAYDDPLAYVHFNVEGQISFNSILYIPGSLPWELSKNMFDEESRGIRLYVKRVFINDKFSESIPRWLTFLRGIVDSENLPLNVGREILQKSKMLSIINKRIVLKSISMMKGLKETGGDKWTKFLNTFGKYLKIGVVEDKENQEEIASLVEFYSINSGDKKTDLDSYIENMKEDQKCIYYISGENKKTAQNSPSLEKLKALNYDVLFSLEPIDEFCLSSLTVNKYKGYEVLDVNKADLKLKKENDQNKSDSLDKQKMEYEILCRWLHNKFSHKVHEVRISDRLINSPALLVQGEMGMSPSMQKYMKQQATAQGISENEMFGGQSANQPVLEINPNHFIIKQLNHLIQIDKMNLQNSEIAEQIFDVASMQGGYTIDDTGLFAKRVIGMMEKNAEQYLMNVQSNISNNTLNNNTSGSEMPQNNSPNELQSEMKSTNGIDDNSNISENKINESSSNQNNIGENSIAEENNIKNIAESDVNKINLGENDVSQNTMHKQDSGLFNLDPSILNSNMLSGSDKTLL

[3] = Luminescence Cell-Based Dose Confirmation HTS to Identify Inhibitors of Platelet Dense Granule Release. [Related pubchem assays: 1663 (Primary HTS), 1678 (Summary of Project)]; assay type: functional
BJ [4] = experiment: cytotoxicity toward BJ-TERT fibroblasts, dose response, cell-based, RAS-independent, luminescence (AID 1933); assay type: functional; conditions: Homo sapiens
BJ [5] = experiment: cytotoxicity toward BJ-TERT-LT-ST fibroblasts, dose response, cell-based, RAS-independent, luminescence (AID 1935); assay type: functional; conditions: Homo sapiens;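 note: BJ fibroblasts immortalized with TERT plus LT and ST oncogenes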
BJ [6] = experiment: cells; assay type: functional, cell-based; conditions: Homo sapiens
[7] = cytotoxicity toward DRD oncogenic fibroblasts, dose response, cell-based, non-viral oncogenic, luminescence (AID 1934); assay type: functional; conditions: Homo sapiens
[8] = target: T1, Small ubiquitin-related modifier 1 (Homo sapiens, UniProt P63165); experiment: inhibitors of SUMO1 peptide binding, dose response, biochemical, fluorescence polarization, uHTS hits (AID 624382); assay type: functional; conditions: read-out: IC50_Mean
T1 sequence (P63165 whole entry): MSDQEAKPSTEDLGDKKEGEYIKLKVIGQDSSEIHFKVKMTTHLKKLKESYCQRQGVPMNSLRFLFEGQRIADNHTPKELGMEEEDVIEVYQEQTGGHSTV

[9] = target: Tyrosine-protein phosphatase non-receptor type 11 (Homo sapiens, UniProt Q06124); experiment: SHP2 phosphatase inhibition, dose response, selectivity assay for STEP inhibitor project, biochemical (AID 602367); assay type: functional; conditions: read-out: IC50_Mean
Sequence of Tyrosine-protein phosphatase non-receptor type 11 (Q06124 whole entry): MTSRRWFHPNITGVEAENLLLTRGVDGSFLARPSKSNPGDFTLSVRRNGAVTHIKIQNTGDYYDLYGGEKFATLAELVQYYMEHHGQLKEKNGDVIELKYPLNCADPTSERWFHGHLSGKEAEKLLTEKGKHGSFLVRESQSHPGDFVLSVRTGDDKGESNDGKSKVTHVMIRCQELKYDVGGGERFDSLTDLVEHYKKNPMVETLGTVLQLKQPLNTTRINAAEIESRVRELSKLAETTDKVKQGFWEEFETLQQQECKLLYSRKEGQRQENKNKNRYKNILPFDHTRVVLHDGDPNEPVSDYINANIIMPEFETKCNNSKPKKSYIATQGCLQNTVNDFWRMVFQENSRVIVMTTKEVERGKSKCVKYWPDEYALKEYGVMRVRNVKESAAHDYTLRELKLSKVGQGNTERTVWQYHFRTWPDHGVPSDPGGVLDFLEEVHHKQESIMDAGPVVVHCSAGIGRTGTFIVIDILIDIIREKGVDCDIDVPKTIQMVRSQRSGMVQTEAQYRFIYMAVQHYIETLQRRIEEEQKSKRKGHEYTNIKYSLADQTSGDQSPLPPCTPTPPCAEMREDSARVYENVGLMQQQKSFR

[10] = HEp-2 cell cytotoxicity, dose response, cytotoxicity control for RSV inhibitor project, HTS (AID 2410); assay type: functional; conditions: human respiratory syncytial virus
[11] = target: Dual specificity protein phosphatase 3 (Homo sapiens, UniProt P51452); experiment: VHR phosphatase inhibition, dose response, selectivity assay for STEP inhibitor project, biochemical (AID 602374); assay type: functional; conditions: read-out: IC50_Mean
Sequence of Dual specificity protein phosphatase 3 (P51452 whole entry): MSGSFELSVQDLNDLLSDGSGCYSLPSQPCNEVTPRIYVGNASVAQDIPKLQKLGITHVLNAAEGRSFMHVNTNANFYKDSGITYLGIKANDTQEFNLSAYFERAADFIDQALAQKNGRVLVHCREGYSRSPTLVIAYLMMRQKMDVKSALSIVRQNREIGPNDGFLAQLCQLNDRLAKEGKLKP

[12] = target: T1, Small ubiquitin-related modifier 1; experiment: inhibitors of SUMO1 partner interactions, dose response, biochemical, FRET (AID 624383); assay type: functional; conditions: read-out: IC50_Mean
[13] = target: Tyrosine-protein phosphatase non-receptor type 5 (Homo sapiens, UniProt P54829); experiment: STEP phosphatase inhibitors, confirmation, biochemical, fluorescence intensity, uHTS hits (AID 602372); assay type: functional; conditions: read-out: IC50_Mean
[14] = target: T2, Carboxy-terminal domain RNA polymerase II polypeptide A small phosphatase 1 (Homo sapiens, UniProt Q9GZU7); experiment: inhibitors of CTDSP1, concentration-response testing, biochemical assay, absorbance-based, actives from ultra-high-throughput screening (AID 540297); assay type: functional
T2 sequence (Q9GZU7 whole entry): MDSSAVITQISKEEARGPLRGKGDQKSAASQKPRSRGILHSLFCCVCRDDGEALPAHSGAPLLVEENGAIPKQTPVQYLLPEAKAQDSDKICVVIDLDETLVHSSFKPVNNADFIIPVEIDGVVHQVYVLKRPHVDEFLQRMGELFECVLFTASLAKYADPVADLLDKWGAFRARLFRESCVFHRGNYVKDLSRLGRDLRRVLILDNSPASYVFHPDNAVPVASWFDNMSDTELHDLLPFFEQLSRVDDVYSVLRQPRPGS

[15] = target: T3, Sentrin-specific protease 1 (Homo sapiens, UniProt Q9P0U3); experiment: Dose response confirmation of small molecule inhibitors of the catalytic domain of the SUMO protease, SENP1 in a FRET assay.; assay type: functional; conditions: read-out: IC50_Mean
T3 sequence (Q9P0U3 whole entry, the tested form may be a part): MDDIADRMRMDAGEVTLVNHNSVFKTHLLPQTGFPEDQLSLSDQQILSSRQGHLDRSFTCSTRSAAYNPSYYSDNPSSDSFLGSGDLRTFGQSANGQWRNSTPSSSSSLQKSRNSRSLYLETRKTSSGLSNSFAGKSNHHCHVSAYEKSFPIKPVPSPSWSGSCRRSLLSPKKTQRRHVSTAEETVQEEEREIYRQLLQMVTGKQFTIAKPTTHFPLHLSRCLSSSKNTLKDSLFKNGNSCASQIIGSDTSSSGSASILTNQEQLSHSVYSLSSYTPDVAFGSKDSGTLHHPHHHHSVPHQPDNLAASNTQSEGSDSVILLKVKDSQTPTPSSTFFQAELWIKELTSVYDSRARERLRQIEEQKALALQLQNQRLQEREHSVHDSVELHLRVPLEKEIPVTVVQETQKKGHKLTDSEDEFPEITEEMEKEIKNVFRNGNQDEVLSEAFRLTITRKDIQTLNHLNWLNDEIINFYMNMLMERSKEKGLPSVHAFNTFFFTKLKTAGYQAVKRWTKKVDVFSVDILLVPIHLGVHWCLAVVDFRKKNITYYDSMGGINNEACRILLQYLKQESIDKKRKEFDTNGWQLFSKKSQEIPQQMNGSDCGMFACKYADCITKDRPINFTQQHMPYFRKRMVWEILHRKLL

[16] = target: T3, Sentrin-specific protease 1; experiment: potency of human SENP1 inhibitors, dose response, biochemical, kinetic FRET (AID 651697); assay type: functional; conditions: read-out: IC50_Mean
SN12K1 = experiment: cells; assay type: functional; conditions: Homo sapiens
P388/ADR = experiment: cells; assay type: functional; conditions: Mus musculus
P388 = experiment: cells; assay type: functional; conditions: Mus musculus
Cytochrome P450 2C19 = Cytochrome P450 2C19 (Homo sapiens, UniProt P33261); experiment: Cytochrome panel assay with activity outcomes. Panel member name: p450-cyp2c19 Compounds with AC50 equal or less than 10 uM are considered active; assay type: functional; conditions: read-out: AC50
Sequence of Cytochrome P450 2C19 (P33261 whole entry): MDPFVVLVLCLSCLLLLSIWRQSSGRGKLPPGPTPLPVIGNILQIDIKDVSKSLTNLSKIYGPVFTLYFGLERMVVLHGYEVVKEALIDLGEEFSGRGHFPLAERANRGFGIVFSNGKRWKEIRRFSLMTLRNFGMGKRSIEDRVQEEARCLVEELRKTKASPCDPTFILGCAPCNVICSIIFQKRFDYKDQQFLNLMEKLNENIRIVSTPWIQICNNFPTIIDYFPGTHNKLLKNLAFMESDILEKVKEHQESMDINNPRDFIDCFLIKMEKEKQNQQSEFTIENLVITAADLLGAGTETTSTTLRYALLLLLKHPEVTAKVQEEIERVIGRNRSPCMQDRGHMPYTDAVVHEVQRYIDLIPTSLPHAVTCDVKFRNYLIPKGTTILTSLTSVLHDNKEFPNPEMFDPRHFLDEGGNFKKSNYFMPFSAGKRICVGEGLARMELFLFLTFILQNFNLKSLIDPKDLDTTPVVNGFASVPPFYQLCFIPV

Cytochrome P450 3A4 = Cytochrome P450 3A4 (Homo sapiens, UniProt P08684);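 note: CYP3A4 tested as one member of a cytochrome P450 panel screen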
Sequence of Cytochrome P450 3A4 (P08684 whole entry): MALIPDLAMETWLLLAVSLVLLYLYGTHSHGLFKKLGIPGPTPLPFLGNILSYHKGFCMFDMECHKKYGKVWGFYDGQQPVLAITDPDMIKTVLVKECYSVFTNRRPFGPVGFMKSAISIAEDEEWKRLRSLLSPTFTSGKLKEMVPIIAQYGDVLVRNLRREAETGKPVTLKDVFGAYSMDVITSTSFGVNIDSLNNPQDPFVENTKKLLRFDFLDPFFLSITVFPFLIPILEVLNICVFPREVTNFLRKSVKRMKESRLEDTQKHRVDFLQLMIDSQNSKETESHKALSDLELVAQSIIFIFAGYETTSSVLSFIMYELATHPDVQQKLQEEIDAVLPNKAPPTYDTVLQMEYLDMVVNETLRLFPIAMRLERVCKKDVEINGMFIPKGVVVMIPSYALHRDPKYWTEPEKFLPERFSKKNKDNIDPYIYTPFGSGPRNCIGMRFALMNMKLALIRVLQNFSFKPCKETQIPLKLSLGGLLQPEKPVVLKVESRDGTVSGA

Cytochrome P450 2C9 = Cytochrome P450 2C9 (Homo sapiens, UniProt P11712)
Sequence of Cytochrome P450 2C9 (P11712 whole entry, the tested form may be a part): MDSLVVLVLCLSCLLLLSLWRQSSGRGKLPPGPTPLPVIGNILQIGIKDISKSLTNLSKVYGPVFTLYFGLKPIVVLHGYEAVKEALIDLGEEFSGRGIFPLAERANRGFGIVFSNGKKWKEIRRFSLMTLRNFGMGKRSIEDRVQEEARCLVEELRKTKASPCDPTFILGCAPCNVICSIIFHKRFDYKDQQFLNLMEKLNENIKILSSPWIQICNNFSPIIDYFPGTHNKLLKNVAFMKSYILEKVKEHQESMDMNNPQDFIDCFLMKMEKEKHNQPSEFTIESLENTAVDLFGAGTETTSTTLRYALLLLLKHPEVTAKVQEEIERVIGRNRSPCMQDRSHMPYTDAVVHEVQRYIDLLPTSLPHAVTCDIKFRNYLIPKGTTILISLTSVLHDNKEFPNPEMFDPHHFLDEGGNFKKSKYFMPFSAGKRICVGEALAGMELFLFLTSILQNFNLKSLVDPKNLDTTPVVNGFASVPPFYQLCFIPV

[17] = target: Photoreceptor-specific nuclear receptor (Homo sapiens, UniProt Q9Y5X4); assay type: functional, cell-based;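 note: CHO-S cells with Gal4-NCOR and VP16-NR2E3 two-hybrid luciferase reporter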
Sequence of Photoreceptor-specific nuclear receptor (Q9Y5X4 whole entry, the tested form may be a part): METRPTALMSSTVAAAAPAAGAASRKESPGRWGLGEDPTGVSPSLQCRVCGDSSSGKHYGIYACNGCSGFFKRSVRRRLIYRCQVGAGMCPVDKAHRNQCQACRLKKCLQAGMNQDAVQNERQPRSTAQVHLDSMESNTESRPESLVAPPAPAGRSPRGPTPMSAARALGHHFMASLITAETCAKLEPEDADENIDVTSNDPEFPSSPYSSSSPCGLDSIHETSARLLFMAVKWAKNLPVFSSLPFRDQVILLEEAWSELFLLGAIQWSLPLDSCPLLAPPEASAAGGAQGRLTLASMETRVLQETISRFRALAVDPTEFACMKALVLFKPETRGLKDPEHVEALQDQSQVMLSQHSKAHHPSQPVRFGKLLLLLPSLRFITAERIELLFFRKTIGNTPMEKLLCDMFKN

Sequence of Luciferin 4-monooxygenase (P08659 whole entry): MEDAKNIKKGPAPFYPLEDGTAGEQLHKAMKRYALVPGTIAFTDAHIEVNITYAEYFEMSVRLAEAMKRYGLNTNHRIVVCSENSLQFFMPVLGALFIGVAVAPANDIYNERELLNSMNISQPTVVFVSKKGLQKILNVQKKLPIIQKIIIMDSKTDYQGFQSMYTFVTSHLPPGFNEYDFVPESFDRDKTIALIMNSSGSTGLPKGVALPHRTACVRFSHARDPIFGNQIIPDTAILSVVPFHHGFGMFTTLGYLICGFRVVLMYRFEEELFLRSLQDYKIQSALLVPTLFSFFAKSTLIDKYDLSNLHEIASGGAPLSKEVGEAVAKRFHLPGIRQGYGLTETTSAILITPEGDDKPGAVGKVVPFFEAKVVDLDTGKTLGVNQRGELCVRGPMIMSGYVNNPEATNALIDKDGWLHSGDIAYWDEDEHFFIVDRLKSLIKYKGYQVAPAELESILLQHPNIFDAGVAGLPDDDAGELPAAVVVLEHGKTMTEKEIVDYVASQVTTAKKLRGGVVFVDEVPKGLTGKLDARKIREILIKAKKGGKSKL

## C(=C\c1nc2ccccc2[nH]1)/c1ccccc1
[1]
  EC50: 0.949 µM (active)
[2]
  AC50: 44 µM (active)
HSP90
  AC50: 106 µM (active)
[3]
  EC50: 2.44 µM (active)
BJ [4]
  EC50: 6.89 µM (active)
BJ [5]
  EC50: > 150 µM (inconclusive)
BJ [6]
  EC50: 8.19 µM (active)
[7]
  EC50: 6.84 µM (active)

## O=C1Nc2ccc3sc4ccccc4c3c2C1=O
[8]
  IC50: > 66.6 µM (inactive)
[9]
  IC50: 3.25 µM (active)
[10]
  CC50: > 50 µM (active)
[11]
  IC50: 2.49 µM (active)
[12]
  IC50: 8.19 µM (active)
[13]
  IC50: 15.2 µM (active)
[14]
  IC50: 4.35 µM (active)

## CCn1c(/C=C/c2cc(Br)ccc2O)nc2ccccc2c1=O
[15]
  IC50: 5.9 µM (active)
[16]
  IC50: 12.5 µM (active)

## Nc1ncnc2c1ncn2C1CCC(CO)O1 (centres undefined)
SN12K1
  GI50: > 62.4 µM (inactive)
P388/ADR
  GI50: 69.5 µM (inactive)
P388
  GI50: 98.6 µM (inactive)

## O=c1cc(N2CCN(c3ccccc3)CC2)[nH]c(=O)n1C1CCCCC1
Cytochrome P450 2C19
  AC50: 3.16 µM (inconclusive)
Cytochrome P450 3A4
  AC50: 6.31 µM (inconclusive)
Cytochrome P450 2C9
  AC50: 15.8 µM (inconclusive)
[17]
  IC50: 0.511 µM (active)
